Reference: patent publication US20200063210A1, “Gene Expression Signatures Associated with Patient Response to Acute Myeloid Leukemia Treatment and Use Thereof for Predicting Response to Therapy” (WAKE FOREST UNIVERSITY HEALTH SCIENCES, priority 2016, published 2020)

Columns and labels:
[1] = system: AML cell lines; assay: AML cell growth under mitochondrial inhibition; assay type: cell-based, human and murine; settings: for AML cell growth: multiple human and murine cell lines, single agent
[2] = system: K562 cells; assay: Oxygen consumption rate after Ara-C, K562; assay type: cell-based; settings: Ara-C for 16 hours
Method: (§1) FIGS. 2A-2B. […] K562 cells (FIG. 2A) and OCI-AML3 (FIG. 2B) and were treated with Ara-C for 16 hours and oxygen consumption rate (OCR) was assessed. Shown is the average OCR from 3 independent experiments each done in triplicate. P value for OCI-AML3 is 0.0387 and for K562 is <0.0001.

[3] = system: OCI-AML3; assay: Oxygen consumption rate after Ara-C, OCI-AML3; assay type: cell-based; settings: Ara-C for 16 hours
Method: as §1

[4] = system: relapsed or refractory AML; assay: Phase I study of CPI-613 in combination with high dose cytarabine and mitoxantrone; assay type: in vivo, human
Source text: FIGS. 8A-8B. Survival compared to historical cohort. CPI-HAM survival in the evaluable population compared to a historical cohort. (FIG. 8A) Kaplan-Meier curve of overall survival of elderly AML patients treated with high dose cytarabine, mitoxantrone, and CPI-613 (CPI-HAM) or a historical cohort of poor risk relapsed or refractory patients treated with high dose cytarabine, mitoxantrone, and asparaginase (HAMA). (FIG. 8B) Kaplan-Meier curve of overall survival of poor risk, relapsed or refractory AML patients treated with high dose cytarabine, mitoxantrone, and CPI-613 (CPI-HAM) or a historical cohort of poor risk relapsed or refractory patients treated with high dose cytarabine, mitoxantrone, and asparaginase (HAMA). Kaplan-Meier estimates were compared by log-rank test.
In a recently completed phase I study, CPI-613 was given in combination with high dose cytarabine and mitoxantrone to patients with relapsed or refractory AML (FIGS. 6-7). In this trial, 67 patients were enrolled and 62 were evaluable. […] The median age was 60 years (range 21-79). In patients with relapsed disease the median duration of CR1 was 11.2 months. Cytogenetics were poor risk in 27 patients, intermediate in 33, and good in 6. In the 62 evaluable patients the results were as follows. The overall response rate was 50% (26CR+5CRi) with a median survival of 6.7 months. […] When compared to historical controls treated with the same chemotherapy without CPI-613 an increase in response rate was seen. […] Additionally, the median survival of the historical patients was only 2.8 months while the median survival in the CPI-613 treated patients was 5.5 months (FIG. 8B). […] In patients >60 years old the CR/CRi rate was 47% (15/32) with a median survival of 6.9 months (FIG. 8A).

[5] = system: PDH; assay: PDH phosphorylation in patient blood samples before and after CPI-613 infusion; assay type: in vivo, human; settings: three patients
Method: (§2) Several patients had blood samples taken before and after CPI-613 infusion. […] The role of AMPK in response was assessed by competition assays using Cas-9 expressing AML cells that have deleted AMPK (FIG. 9B).

[6] = system: AMPK; assay: AMPK phosphorylation blot of patient mononuclear cells after CPI-613 infusion; assay type: in vivo, human; settings: two patients, day one after infusion
Method: (§3) FIGS. 9A-9C. AMPK Contributes to Resistance to CPI-613. (FIG. 9A) CPI-613 induces AMPK phosphorylation. Blood samples were taken on day one of treatment at the indicated time points following infusion of CPI-613. Red blood cells were lysed, and mononuclear cells were isolated. Extracts were prepared and blotted for phosphorylated AMPK. Both patients had circulating blasts at the time of sampling. Actin was used as a loading control. (FIG. 9B) Competition assay. Cas9 expressing MFL2 cells were partially infected with an sgRNA vector targeting AMPK tagged with GFP. Cells were incubated with the indicated drug for 72 hours and the % GFP+determined in the viable population. (FIG. 9C) Viability assay. Clones of Cas9 expressing MFL2 cells with sgRNAs targeting AMPK or ROSA26 were incubated with the indicated drug for 72 hours and viability determined.
as §2

[7] = system: AMPK deleted MFL2 AML cells; assay: Competition assay, Cas9 expressing MFL2 cells with sgRNA targeting AMPK; assay type: cell-based; settings: 72 hours with drug, % GFP+ in the viable population
Method: as §3, §2

[8] = system: Murine AML cells (M1p5); assay: Viability of M1p5 AML cells expressing p53 shRNA or vector control; assay type: cell-based; settings: 72 hours; for response of p53 shRNA cells compared to vector controls (viability): single agent
Method: FIGS. 10A-10C. CPI-613 induces chemotherapy sensitivity in p53 suppressed AML cells. (FIG. 10A) Murine AML cells (M1p5) expressing an shRNA against p53 (p53 shRNA) or vector control (GFP Control) were exposed to the indicated amount of CPI-613 (in μmoles). After 72 hours viability was determined and compared to untreated cells. (FIG. 10B) Murine AML cells (M1p5) expressing an shRNA against p53 (p53 shRNA) or vector control (GFP Control) were exposed to the indicated amount of doxorubicin (in nmoles). After 72 hours viability was determined and compared to untreated cells. (FIG. 10C) Murine AML cells (M1p5) expressing an shRNA against p53 (p53 shRNA) or vector control (GFP Control) were exposed to 50 μM CPI-613 and 2.5, 5, or 10 nM Doxorubicin for 72 hours. Following exposure viability was assessed and compared to untreated cells.
Loss of p53 is associated with poor risk cytogenetics, poor prognosis and resistance to chemotherapy but not resistance to CPI-613. In AML patients poor risk karyotypes are associated with p53 loss or mutation in 70-80% of cases (13, 29). Indeed it has been argued that much of the prognostic importance of poor risk karyotypes is mediated by p53 loss (13). This is not surprising given the association between p53 status and response to chemotherapy in AML (30). In order to assess the consequences of p53 suppression on mitochondrial inhibition we generated murine AML cells that knocked down p53 by shRNA.

[9] = system: Baf3-p210 cells; assay: Survival of Balb/c mice injected with Baf3-p210 cells; assay type: in vivo; settings: CPI at 250 mg/kg plus Doxorubicin at 3 mg/kg, day 3
Method: FIG. 4. […] Balb/c mice were injected with Baf3-p210 cells and on day 3 treated with saline (control), Doxorubicin at 3 mg/kg or CPI at 250 mg/kg plus doxorubicin. Dox=Doxorubicin, CPI=CPI-613. P value shown is for Dox vs CPI-Dox.

[10] = system: advanced myeloid malignancies; settings: single agent; heavily pre-treated cohort; cited from earlier work
[11] = 62 evaluable patients, CPI-613 with high dose cytarabine and mitoxantrone

SMILES: CN(C)C(=N)N=C(N)N [metformin]
- AML cell growth [1]: impairs AML cell growth

SMILES: Nc1ccn([C@@H]2O[C@H](CO)[C@@H](O)[C@@H]2O)c(=O)n1 [cytarabine]
- oxygen consumption rate (OCR) [2]: induces mitochondrial metabolism
- oxygen consumption rate (OCR) [3]: induces mitochondrial metabolism

SMILES: O=C(O)CCCCC(CCSCc1ccccc1)SCc1ccccc1 (stereo not shown) [CPI-613]
- median survival [4, 11]: 6.7 months
- overall response rate (CR+CRi) [4, 11]: 50%
- CR/CRi rate, patients >60 years old ([4]; patients >60 years old (15/32)): 47%
- median survival, patients >60 years old ([4]; patients >60 years old (FIG. 8A)): 6.9 months
- median survival for all others ([4]; patients without response, CPI-613 with high dose cytarabine and mitoxantrone): 3 months
- median survival, poor risk ([4]; poor risk CPI-613 treated patients (FIG. 8B)): 5.5 months
- response rate, poor risk cytogenetics ([4]; poor risk cytogenetics (9CR+2CRi/24), CPI-613 with high dose cytarabine and mitoxantrone): 46%
- response rate versus historical controls, poor risk disease ([4]; poor risk disease, compared with the same chemotherapy without CPI-613): more than doubled
- median survival in responders ([4]; responders, CPI-613 with high dose cytarabine and mitoxantrone): 13.2 months
- phosphorylation of PDH [5]: increased phosphorylation of PDH
- phosphorylation of AMPK [6]: robust phosphorylation of AMPK
- competition of normal versus AMPK deleted cells [7]: Normal cells out-competed AMPK deleted cells
- sensitivity of p53 shRNA cells to doxorubicin in presence of CPI-613 ([8]; 50 μM CPI-613 and 2.5, 5, or 10 nM Doxorubicin): increased sensitivity to doxorubicin to that of the controls
- response of p53 shRNA cells compared to vector controls (viability) [8]: no change in response
- combination effect with doxorubicin in vivo [9]: acts synergistically with doxorubicin in vivo
- AML cell growth [1]: impairs AML cell growth
- combination effect of metformin and CPI-613 ([1]; the two together): synergistic in vitro and in vivo
- overall response rate [10]: 29%

SMILES: COc1cccc2c1C(=O)c1c(O)c3c(c(O)c1C2=O)C[C@@](O)(C(=O)CO)C[C@@H]3O[C@H]1C[C@H](N)[C@H](O)[C@H](C)O1 [doxorubicin]
- response of p53 shRNA cells compared to vector controls (viability) [8]: significantly resistant
